Source: patent US11974976B2, “Animal feeds and feed premixes containing betaine hydrochloride and a phytase” (Rural Chemical Industries (AUST) PTY LTD, priority 2013, dated 2024)
Counter-ions that a name gives are not always drawn. Marks after values point to notes of the source that are not given here.

Assays:
male Ross 308 chicks [1] = assay: Carcass traits (breast weight, breast meat yield, abdominal fat pad weight); format: in vivo, broiler chicks; settings: for Breast weight: bone-in; for Breast weight / Breast meat yield / Fat pad weight: phytase 500 FTU/kg, betaine 2.75 g/kg
Description: (§1) The composition and nutrient specifications of the three basal starter (1-16 days post-hatch) and finisher (17-37 days post-hatch) diets are shown in Table 1. An NSP-degrading enzyme (Econase XT) was included across all the wheat-based diets to reflect standard practice and the finisher diets contained 20 g/kg Celite as an acid insoluble ash dietary marker. The starter diets were fed as mash, while the finisher diets were steam-pelleted at a conditioning temperature of 85° C. The NC1 diets were the ‘phytase-modified’ diets with formulated with reductions of 1.4 g/kg Ca and 1.5 g/kg P in the starter diets, which mainly stemmed from the elimination of dicalcium phosphate. The corresponding reductions in the finisher diets were 1.2 g/kg Ca and 1.4/kg P. The NC2 diets were the ‘betaine-modified’ diets in which energy density, methionine and choline levels were reduced mainly by lower inclusion levels of canola oil and synthetic methionine and the elimination of choline chloride relative to the PC diets. The energy densities were reduced from 12.55 to 12.24 MJ/kg in the starter diets and from 12.97 to 12.66 MJ/kg in the finisher diets. Methionine levels were reduced from 4.44 to 3.19 g/kg in the starter diets and from 4.18 to 2.93 g/kg in the finisher diets. Exogenous phytase (Quantum® Blue; AB Vista) was included in the relevant diets at 100 g per tonne or 500 FTU/kg phytase activity and, similarly, betaine HCl (Hi Beta″, 970 g/kg betaine hydrochloride; Rural Chemical Industries) was included in the diets at 2.75 g/kg.
(§2) The parameters evaluated included growth performance (weight gains, feed intakes, feed conversion ratios; FCR) from 1 to 16, 17 to 37 and 1 to 37 days post-hatch, 1 to 37 days weight gain-corrected FCR, mortality/cull rates, percentage toe ash, nitrogen (N) excretion and nutrient utilisation. Nutrient utilisation included apparent metabolisable energy (AME), expressed as both MJ/kg and MJ/day, N retention and N-corrected AME (AMEn). Also, breast weights in absolute and relative (% yield) terms, abdominal fat pad weights and pH of gizzard contents were determined. However, for reasons of practical expediency, absolute breast weights were determined on a ‘bone-in’ basis from birds that had not been de-feathered and this approach inflates both the absolute weight and yield; nevertheless, the data remains indicative. The experimental data was obtained and calculated via standard procedures followed by the Poultry Research Foundation. While the various procedures are not detailed in this report the majority of them have been described in detail (Selle et al., 2003b) previously.
(§3) The experimental data was statistically analysed as a 3×2×2 factorial array of dietary treatments. That is diet type (PC, NC1, NC2), without and with the addition of phytase, without and with the addition of betaine HCl. Each of the 12 dietary treatments was offered to 8 replicate cages of 6 birds or a total of 96 cages and 576 birds (male Ross 308 chicks). The IBM® SPSS® Statistics 20 program was used to analyse experimental data and the study complied with specific guidelines of the Animal Ethics Committee of Sydney University.

male Ross 308 chicks [2] = assay: Bone mineralisation (percentage toe ash); format: in vivo, broiler chicks; settings: phytase 500 FTU/kg, betaine 2.75 g/kg
Description: as §1, §2
(§4) The experimental data was statistically analysed as a 3×2×2 factorial array of dietary treatments. […]

male Ross 308 chicks [3] = assay: Mortality/cull rates to 37 days post-hatch; settings: phytase 500 FTU/kg, betaine 2.75 g/kg
Description: as §1, §2, §4

male Ross 308 chicks [4] = assay: Growth performance of broilers (weight gain, feed intake, feed conversion); format: in vivo, broiler chicks; settings: for Feed efficiency: feed conversion ratio; for Feed efficiency / Feed intake / Weight gain / Gain-corrected FCR: phytase 500 FTU/kg, betaine 2.75 g/kg
Description: as §1, §2, §3

[5] = main effect across diets, hydrochloride
[6] = main effect across diets, listed as betaine HCl, hydrochloride
[7] = NC1 diets, 1 to 16 days post-hatch
[8] = NC1 diets, 1 to 37 days post-hatch
[9] = NC1 diets, 17 to 37 days post-hatch
[10] = NC2 diets, 1 to 16 days post-hatch
[11] = NC2 diets, 1 to 37 days post-hatch
[12] = NC2 diets, 17 to 37 days post-hatch
[13] = PC diets, 1 to 16 days post-hatch
[14] = PC diets, 1 to 37 days post-hatch
[15] = PC diets, 17 to 37 days post-hatch
[16] = main effect across diets, 1 to 16 days post-hatch
[17] = main effect across diets, 1 to 37 days post-hatch
[18] = main effect across diets, 17 to 37 days post-hatch
[19] = main effect, 17 to 37 days (finisher phase)

C[N+](C)(C)CC(=O)O [Betaine, betaine hydrochloride]
Breast weight (male Ross 308 chicks [1]; NC1 diets): 526 g/bird
Breast meat yield (male Ross 308 chicks [1]; NC1 diets): 25.7%
Fat pad weight (male Ross 308 chicks [1]; NC1 diets): 14.7 g/bird
Breast weight (male Ross 308 chicks [1]; NC2 diets): 625 g/bird
Breast meat yield (male Ross 308 chicks [1]; NC2 diets): 26.9%
Fat pad weight (male Ross 308 chicks [1]; NC2 diets): 18.4 g/bird
Breast weight (male Ross 308 chicks [1]; PC diets): 660 g/bird
Breast meat yield (male Ross 308 chicks [1]; PC diets): 28.3%
Fat pad weight (male Ross 308 chicks [1]; PC diets): 17.3 g/bird
Breast meat yield, phytase x betaine interaction mean (male Ross 308 chicks [1]; across diet types): 27.0%
Fat pad weight, phytase x betaine interaction mean (male Ross 308 chicks [1]; across diet types): 16.8 g/bird
Decrease in fat pad weights by betaine HCl (male Ross 308 chicks [1]; in the absence of phytase): 17.6%
Increase in fat pad weights by betaine HCl (male Ross 308 chicks [1]; in the presence of phytase): 8.67%
Increase in breast meat yield (relative) (male Ross 308 chicks [1]; main effect): 1.91%
Increase in breast yield (male Ross 308 chicks [1]; main effect): 0.5 percentage units
Breast weight (male Ross 308 chicks [1]; [5]): 624 g/bird
Breast weight (male Ross 308 chicks [1]; main effect across diets, listed as betaine, hydrochloride): no influence
Breast meat yield (male Ross 308 chicks [1]; [5]): 26.7^b %
Fat pad weight (male Ross 308 chicks [1]; [5]): 19.1 g/bird
Breast meat yield (male Ross 308 chicks [1]; main effect across diets, listed as Betaine HCl, hydrochloride): 26.7%
Breast meat yield (male Ross 308 chicks [1]; [6]): 26.7%
Fat pad weight (male Ross 308 chicks [1]; [6]): no effect
Toe ash (male Ross 308 chicks [2]; NC1 diets): 11.15%
Toe ash (male Ross 308 chicks [2]; NC2 diets): 12.29%
Toe ash (male Ross 308 chicks [2]; PC diets): 11.99%
Toe ash (male Ross 308 chicks [2]; main effect across diets): 12.07%
Mortality and cull rates (male Ross 308 chicks [3]; NC1 diets): 4.18%
Mortality and cull rates (male Ross 308 chicks [3]; NC2 diets): 6.25%
Mortality and cull rates (male Ross 308 chicks [3]; PC diets): 4.18%
Mortality and cull rates (male Ross 308 chicks [3]; main effect across diets): 4.17%
Weight gain, phytase x betaine interaction mean (male Ross 308 chicks [4]; 1 to 37 days, across diet types): 2202 g/bird
Weight gain, phytase x betaine interaction mean (male Ross 308 chicks [4]; 17 to 37 days, across diet types): 1797 g/bird
Depression of weight gain versus non-supplemented diets (male Ross 308 chicks [4]; 17 to 37 days, betaine HCl alone, across diet types): 7.70%
Feed efficiency (male Ross 308 chicks [4]; [7]): 1.414
Feed intake (male Ross 308 chicks [4]; [7]): 556 g/bird
Weight gain (male Ross 308 chicks [4]; [7]): 395 g/bird
Weight gain, two-way interaction mean (diet type x additive) (male Ross 308 chicks [4]; NC1 diets, 1 to 37 days): 2437 g/bird
Feed efficiency (male Ross 308 chicks [4]; [8]): 1.732
Feed intake (male Ross 308 chicks [4]; [8]): 3478 g/bird
Weight gain (male Ross 308 chicks [4]; [8]): 2012 g/bird
Gain-corrected FCR (male Ross 308 chicks [4]; NC1 diets, 1 to 37 days): 1.858 g/g
Increase in weight gain on addition to diet (male Ross 308 chicks [4]; NC1 diets, 1 to 37 days, two-way interaction): 0.61%
Weight gain, two-way interaction mean (diet type x additive) (male Ross 308 chicks [4]; NC1 diets, 17 to 37 days): 1737 g/bird
Feed efficiency (male Ross 308 chicks [4]; [9]): 1.811
Feed intake (male Ross 308 chicks [4]; [9]): 2923 g/bird
Weight gain (male Ross 308 chicks [4]; [9]): 1618 g/bird
Feed efficiency (male Ross 308 chicks [4]; [10]): 1.394
Feed intake (male Ross 308 chicks [4]; [10]): 523 g/bird
Weight gain (male Ross 308 chicks [4]; [10]): 377 g/bird
Feed efficiency (male Ross 308 chicks [4]; [11]): 1.641
Feed intake (male Ross 308 chicks [4]; [11]): 3728 g/bird
Weight gain (male Ross 308 chicks [4]; [11]): 2272 g/bird
Gain-corrected FCR (male Ross 308 chicks [4]; NC2 diets, 1 to 37 days): 1.663 g/g
Depression of weight gain on addition to diet (male Ross 308 chicks [4]; NC2 diets, 1 to 37 days, two-way interaction): 5.29%
Feed efficiency (male Ross 308 chicks [4]; [12]): 1.691
Feed intake (male Ross 308 chicks [4]; [12]): 3205 g/bird
Weight gain (male Ross 308 chicks [4]; [12]): 1896 g/bird
Depression of weight gain on addition to diet (male Ross 308 chicks [4]; NC2 diets, 17 to 37 days, two-way interaction): 6.27%
Feed efficiency (male Ross 308 chicks [4]; [13]): 1.334
Feed intake (male Ross 308 chicks [4]; [13]): 591 g/bird
Weight gain (male Ross 308 chicks [4]; [13]): 444 g/bird
Feed efficiency (male Ross 308 chicks [4]; [14]): 1.601
Feed intake (male Ross 308 chicks [4]; [14]): 3714 g/bird
Weight gain (male Ross 308 chicks [4]; [14]): 2321 g/bird
Gain-corrected FCR (male Ross 308 chicks [4]; PC diets, 1 to 37 days): 1.604 g/g
Depression of weight gain on addition to diet (male Ross 308 chicks [4]; PC diets, 1 to 37 days, two-way interaction): 4.90%
Feed efficiency (male Ross 308 chicks [4]; [15]): 1.665
Feed intake (male Ross 308 chicks [4]; [15]): 3123 g/bird
Weight gain (male Ross 308 chicks [4]; [15]): 1878 g/bird
Depression of weight gain on addition to diet (male Ross 308 chicks [4]; PC diets, 17 to 37 days, two-way interaction): 6.35%
Feed efficiency (male Ross 308 chicks [4]; main effect across diets, 1 to 16 days post-hatch, hydrochloride): 1.380^b
Feed efficiency (male Ross 308 chicks [4]; main effect across diets, 1 to 16 days post-hatch, listed as Betaine HCl, hydrochloride): 1.380
Feed intake (male Ross 308 chicks [4]; [16]): 567 g/bird
Weight gain (male Ross 308 chicks [4]; [16]): 413 g/bird
Feed efficiency (male Ross 308 chicks [4]; main effect across diets, 1 to 37 days post-hatch, hydrochloride): 1.647
Feed efficiency (male Ross 308 chicks [4]; main effect across diets, 1 to 37 days post-hatch, listed as betaine HCl, hydrochloride): no significant impact
Feed intake (male Ross 308 chicks [4]; [17]): 3756 g/bird
Weight gain (male Ross 308 chicks [4]; [17]): 2288 g/bird
Gain-corrected FCR (male Ross 308 chicks [4]; main effect across diets, 1 to 37 days, hydrochloride): 1.663^a g/g
Gain-corrected FCR (male Ross 308 chicks [4]; main effect across diets, 1 to 37 days, listed as betaine HCl, hydrochloride): 1.663 g/g
Feed efficiency (male Ross 308 chicks [4]; main effect across diets, 17 to 37 days post-hatch, hydrochloride): 1.707^b
Feed efficiency (male Ross 308 chicks [4]; main effect across diets, 17 to 37 days post-hatch, listed as betaine HCl, hydrochloride): 1.707
Feed intake (male Ross 308 chicks [4]; [18]): 3189 g/bird
Weight gain (male Ross 308 chicks [4]; [18]): 1875^a g/bird
Depression of gain-corrected FCR (male Ross 308 chicks [4]; main effect, 1 to 37 days): 3.42%
Depression of feed efficiency (male Ross 308 chicks [4]; [19]): 2.46%
Depression of weight gain (male Ross 308 chicks [4]; [19]): 4.48%
Depression of growth rates (male Ross 308 chicks [4]; main effect, entire feeding period): 3.38%
Improvement in feed efficiency (FCR) (male Ross 308 chicks [4]; main effect, starter phase, 1 to 16 days post-hatch): 3.77%
